Reference: PMC9848257, “Design and synthesis of novel rigid dibenzo[b,f]azepines through ring closure technique as promising anticancer candidates against leukaemia and acting as selective topoisomerase II inhibitors and DNA intercalators” (Journal of Enzyme Inhibition and Medicinal Chemistry, 2023)

Legend:
Format in all cases: cell-based
[1] = test system: HOP-62; assay: NCI-60 one-dose screen, HOP-62; details: Homo sapiens; HOP-62, non-small cell lung cancer; single dose 10 μM; read-out: Growth inhibition %
[2] = test system: CCRF-CEM; assay: NCI-60 one-dose screen, CCRF-CEM; details: Homo sapiens, leukaemia, single dose 10 μM, read-out: Growth inhibition %
[3] = test system: T-47D; assay: NCI-60 one-dose screen, T-47D; details: Homo sapiens, T47D, breast cancer, single dose 10 μM, read-out: Growth inhibition %
[4] = test system: A549-ATCC; assay: NCI-60 one-dose screen, A549-ATCC; details: Homo sapiens, non-small cell lung cancer, single dose 10 μM, read-out: Growth inhibition %
[5] = test system: CAKI-1; assay: NCI-60 one-dose screen, CAKI-1; details: Homo sapiens; CAKI-1, renal cancer; single dose 10 μM; read-out: Growth inhibition %
[6] = test system: MDA-MB-231-ATCC; assay: NCI-60 one-dose screen, MDA-MB-231-ATCC; details: Homo sapiens, breast cancer, single dose 10 μM, read-out: Growth inhibition %
[7] = test system: OVCAR-4; assay: NCI-60 one-dose screen, OVCAR-4; details: Homo sapiens; OVCAR-4, ovarian cancer; single dose 10 μM; read-out: Growth inhibition %
[8] = test system: K-562; assay: NCI-60 one-dose screen, K-562; details: Homo sapiens, K562; K-562, leukaemia; single dose 10 μM; read-out: Growth inhibition %
[9] = test system: SK-MEL-5; assay: NCI-60 one-dose screen, SK-MEL-5; details: Homo sapiens; SK-MEL-5, melanoma; single dose 10 μM; read-out: Growth inhibition %
[10] = test system: RXF 393; assay: NCI-60 one-dose screen, RXF 393; details: Homo sapiens; RXF 393, renal cancer; single dose 10 μM; read-out: Growth inhibition %
[11] = test system: M14; assay: NCI-60 one-dose screen, M14; details: Homo sapiens; M14, melanoma; single dose 10 μM; read-out: Growth inhibition %
[12] = test system: MALME-3M; assay: NCI-60 one-dose screen, MALME-3M; details: Homo sapiens, melanoma, single dose 10 μM, read-out: Growth inhibition %
[13] = test system: NCI-H23; assay: NCI-60 one-dose screen, NCI-H23; details: Homo sapiens; NCI-H23, non-small cell lung cancer; single dose 10 μM; read-out: Growth inhibition %
[14] = test system: HCT-15; assay: NCI-60 one-dose screen, HCT-15; details: Homo sapiens; HCT-15, colon cancer; single dose 10 μM; read-out: Growth inhibition %
[15] = test system: OVCAR-8; assay: NCI-60 one-dose screen, OVCAR-8; details: Homo sapiens; OVCAR-8, ovarian cancer; single dose 10 μM; read-out: Growth inhibition %
[16] = test system: SF-268; assay: NCI-60 one-dose screen, SF-268; details: Homo sapiens; SF-268, CNS cancer; single dose 10 μM; read-out: Growth inhibition %
[17] = test system: NCI-H322M; assay: NCI-60 one-dose screen, NCI-H322M; details: Homo sapiens, non-small cell lung cancer, single dose 10 μM, read-out: Growth inhibition %
[18] = test system: MDA-MB-468; assay: NCI-60 one-dose screen, MDA-MB-468; details: Homo sapiens; MDA-MB-468, breast cancer; single dose 10 μM; read-out: Growth inhibition %
[19] = test system: DU-145; assay: NCI-60 one-dose screen, DU-145; details: Homo sapiens; DU-145, prostate cancer; single dose 10 μM; read-out: Growth inhibition %
[20] = test system: HS 578 T; assay: NCI-60 one-dose screen, HS 578 T; details: Homo sapiens, breast cancer, single dose 10 μM, read-out: Growth inhibition %
[21] = test system: UACC-257; assay: NCI-60 one-dose screen, UACC-257; details: Homo sapiens; UACC-257, melanoma; single dose 10 μM; read-out: Growth inhibition %
[22] = test system: SF-295; assay: NCI-60 one-dose screen, SF-295; details: Homo sapiens; SF-295, CNS cancer; single dose 10 μM; read-out: Growth inhibition %
[23] = test system: OVCAR-3; assay: NCI-60 one-dose screen, OVCAR-3; details: Homo sapiens; OVCAR-3, ovarian cancer; single dose 10 μM; read-out: Growth inhibition %
[24] = test system: SK-OV-3; assay: NCI-60 one-dose screen, SK-OV-3; details: Homo sapiens; SK-OV-3, ovarian cancer; single dose 10 μM; read-out: Growth inhibition %
[25] = test system: HL-60(TB); assay: NCI-60 one-dose screen, HL-60(TB); details: Homo sapiens, leukaemia, single dose 10 μM, read-out: Growth inhibition %
[26] = test system: SF-539; assay: NCI-60 one-dose screen, SF-539; details: Homo sapiens; SF-539, CNS cancer; single dose 10 μM; read-out: Growth inhibition %
[27] = test system: LOX IMVI; assay: NCI-60 one-dose screen, LOX IMVI; details: Homo sapiens, melanoma, single dose 10 μM, read-out: Growth inhibition %
[28] = test system: NCI-H226; assay: NCI-60 one-dose screen, NCI-H226; details: Homo sapiens; NCI-H226, non-small cell lung cancer; single dose 10 μM; read-out: Growth inhibition %
[29] = test system: COLO 205; assay: NCI-60 one-dose screen, COLO 205; details: Homo sapiens; COLO 205, colon cancer; single dose 10 μM; read-out: Growth inhibition %
[30] = test system: SW-620; assay: NCI-60 one-dose screen, SW-620; details: Homo sapiens; SW-620, colon cancer; single dose 10 μM; read-out: Growth inhibition %
[31] = test system: HT29; assay: NCI-60 one-dose screen, HT29; details: Homo sapiens, HT-29; HT29, colon cancer; single dose 10 μM; read-out: Growth inhibition %
[32] = test system: SK-MEL-2; assay: NCI-60 one-dose screen, SK-MEL-2; details: Homo sapiens; SK-MEL-2, melanoma; single dose 10 μM; read-out: Growth inhibition %
[33] = test system: KM12; assay: NCI-60 one-dose screen, KM12; details: Homo sapiens; KM12, colon cancer; single dose 10 μM; read-out: Growth inhibition %
[34] = test system: A498; assay: NCI-60 one-dose screen, A498; details: Homo sapiens; A498, renal cancer; single dose 10 μM; read-out: Growth inhibition %
[35] = test system: ACHN; assay: NCI-60 one-dose screen, ACHN; details: Homo sapiens, renal cancer, single dose 10 μM, read-out: Growth inhibition %

| SMILES | inhibition at 10 µM [1] [%] | inhibition at 10 µM [2] [%] | inhibition at 10 µM [3] [%] | inhibition at 10 µM [4] [%] | inhibition at 10 µM [5] [%] | inhibition at 10 µM [6] [%] | inhibition at 10 µM [7] [%] | inhibition at 10 µM [8] [%] | inhibition at 10 µM [9] [%] | inhibition at 10 µM [10] [%] | inhibition at 10 µM [11] [%] | inhibition at 10 µM [12] [%] | inhibition at 10 µM [13] [%] | inhibition at 10 µM [14] [%] | inhibition at 10 µM [15] [%] | inhibition at 10 µM [16] [%] | inhibition at 10 µM [17] [%] | inhibition at 10 µM [18] [%] | inhibition at 10 µM [19] [%] | inhibition at 10 µM [20] [%] | other results |
| --- | --- | --- | --- | --- | --- | --- | --- | --- | --- | --- | --- | --- | --- | --- | --- | --- | --- | --- | --- | --- | --- |
| O=C(NNC(=O)N1c2ccccc2C=Cc2ccccc21)c1ccc2ccccc2c1 [Compound 4f, N′-(2-Naphthoyl)-5H-dibenzo[b,f]azepine-5-carbohydrazide] | < 10 | < 10 | 12.6 | < 10 | < 10 | < 10 | < 10 | 12.8 | < 10 | < 10 | < 10 | < 10 | < 10 | < 10 | < 10 | < 10 | < 10 | 12.3 | < 10 | < 10 | inhibition at 10 µM [21]: < 10%; inhibition at 10 µM [22]: < 10%; inhibition at 10 µM [23]: < 10%; inhibition at 10 µM [24]: < 10%; inhibition at 10 µM [25]: 10%; inhibition at 10 µM [26]: < 10%; inhibition at 10 µM [27]: < 10%; inhibition at 10 µM [28]: < 10%; inhibition at 10 µM [29]: < 10%; inhibition at 10 µM [30]: < 10%; inhibition at 10 µM [31]: 11.4%; inhibition at 10 µM [32]: < 10%; inhibition at 10 µM [33]: < 10%; inhibition at 10 µM [34]: < 10%; inhibition at 10 µM [35]: < 10% |
| O=C(NNC(=O)N1c2ccccc2C=Cc2ccccc21)c1ccccc1 [Compound 4a, N′-Benzoyl-5H-dibenzo[b,f]azepine-5-carbohydrazide] | < 10 | < 10 | < 10 | < 10 | < 10 | < 10 | < 10 | < 10 | < 10 | < 10 | < 10 | < 10 | < 10 | < 10 | < 10 | < 10 | < 10 | < 10 | < 10 | < 10 | inhibition at 10 µM [21]: < 10%; inhibition at 10 µM [22]: < 10%; inhibition at 10 µM [23]: < 10%; inhibition at 10 µM [24]: < 10%; inhibition at 10 µM [25]: < 10%; inhibition at 10 µM [26]: < 10%; inhibition at 10 µM [27]: < 10%; inhibition at 10 µM [28]: < 10%; inhibition at 10 µM [29]: < 10%; inhibition at 10 µM [30]: < 10%; inhibition at 10 µM [31]: < 10%; inhibition at 10 µM [32]: < 10%; inhibition at 10 µM [33]: < 10%; inhibition at 10 µM [34]: < 10%; inhibition at 10 µM [35]: < 10% |
| C1=Cc2ccccc2N(c2nnc(-c3ccccc3)o2)c2ccccc21 [Compound 5a, 2-(5 h-Dibenzo[b,f]azepin-5-yl)-5-phenyl-1,3,4-oxadiazole] | 15.3 | 26.1 | < 10 | < 10 | < 10 | < 10 | < 10 | 32.2 | < 10 | < 10 | 12.1 | < 10 | < 10 | < 10 | < 10 | < 10 | 50.2 | 26.1 | 12.4 | < 10 | inhibition at 10 µM [21]: 13.6%; inhibition at 10 µM [22]: < 10%; inhibition at 10 µM [23]: < 10%; inhibition at 10 µM [24]: < 10%; inhibition at 10 µM [25]: 13.2%; inhibition at 10 µM [26]: < 10%; inhibition at 10 µM [27]: < 10%; inhibition at 10 µM [28]: < 10%; inhibition at 10 µM [29]: < 10%; inhibition at 10 µM [30]: < 10%; inhibition at 10 µM [31]: < 10%; inhibition at 10 µM [32]: < 10%; inhibition at 10 µM [33]: < 10%; inhibition at 10 µM [34]: < 10%; inhibition at 10 µM [35]: 16.7% |
